What all share (type): biochemical
The target of one experiment is T1, JAK2 (Homo sapiens, UniProt O60674).
T1 construct: made in house; host or cells: SF9 insect cells (baculovirus)
In words: JAK2 inhibition (Table 4). Conditions: read-out: JAK2 Ki.

Another experiment deals with T2, JAK3 (Homo sapiens, UniProt P52333).
T2 construct: made in house; host or cells: SF9 insect cells (baculovirus)
In words: JAK3 inhibition (Table 4). To be noted: read-out: JAK3 Ki.

Another experiment deals with T3, JAK1 (Homo sapiens, UniProt P23458).
T3 construct: made in house; host or cells: SF9 insect cells (baculovirus)
Kind of experiment: JAK1 inhibition (Table 4). To be noted: read-out: JAK1 Ki.

The next experiment concerns the target T4, TYK2 (Homo sapiens, UniProt P29597).
T4 construct: made in house; host or cells: SF9 insect cells (baculovirus)
T4 sequence (P29597 873-1187): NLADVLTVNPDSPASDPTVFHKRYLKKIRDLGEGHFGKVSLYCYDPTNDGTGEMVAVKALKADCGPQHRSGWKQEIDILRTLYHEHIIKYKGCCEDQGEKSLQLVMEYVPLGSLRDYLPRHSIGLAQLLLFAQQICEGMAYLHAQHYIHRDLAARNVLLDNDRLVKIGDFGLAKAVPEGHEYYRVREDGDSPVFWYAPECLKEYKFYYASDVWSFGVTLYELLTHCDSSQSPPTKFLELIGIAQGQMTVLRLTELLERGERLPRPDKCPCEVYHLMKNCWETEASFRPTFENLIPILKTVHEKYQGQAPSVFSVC
In words: TYK2 inhibition (Table 4).

Structures can show the parent of a compound that is named as a salt.

T3 sequence (P23458 852-1154): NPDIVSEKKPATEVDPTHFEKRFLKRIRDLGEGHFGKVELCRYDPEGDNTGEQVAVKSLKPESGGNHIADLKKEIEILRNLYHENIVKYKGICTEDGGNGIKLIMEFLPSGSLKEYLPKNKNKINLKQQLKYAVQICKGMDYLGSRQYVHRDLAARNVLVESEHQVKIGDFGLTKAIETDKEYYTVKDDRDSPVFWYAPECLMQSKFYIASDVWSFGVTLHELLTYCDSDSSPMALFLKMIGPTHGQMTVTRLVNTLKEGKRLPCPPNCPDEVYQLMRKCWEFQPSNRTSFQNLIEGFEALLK
T1 sequence (O60674 812-1132): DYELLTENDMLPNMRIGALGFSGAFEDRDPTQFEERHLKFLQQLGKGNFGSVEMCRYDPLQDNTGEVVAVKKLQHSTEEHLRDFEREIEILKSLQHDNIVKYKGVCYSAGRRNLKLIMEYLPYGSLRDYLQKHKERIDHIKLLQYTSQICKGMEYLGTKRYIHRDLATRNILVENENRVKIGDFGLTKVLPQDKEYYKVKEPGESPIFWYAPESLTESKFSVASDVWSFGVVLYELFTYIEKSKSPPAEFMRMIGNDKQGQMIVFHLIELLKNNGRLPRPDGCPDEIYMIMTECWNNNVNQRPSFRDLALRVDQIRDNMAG
T2 sequence (P52333 783-1124): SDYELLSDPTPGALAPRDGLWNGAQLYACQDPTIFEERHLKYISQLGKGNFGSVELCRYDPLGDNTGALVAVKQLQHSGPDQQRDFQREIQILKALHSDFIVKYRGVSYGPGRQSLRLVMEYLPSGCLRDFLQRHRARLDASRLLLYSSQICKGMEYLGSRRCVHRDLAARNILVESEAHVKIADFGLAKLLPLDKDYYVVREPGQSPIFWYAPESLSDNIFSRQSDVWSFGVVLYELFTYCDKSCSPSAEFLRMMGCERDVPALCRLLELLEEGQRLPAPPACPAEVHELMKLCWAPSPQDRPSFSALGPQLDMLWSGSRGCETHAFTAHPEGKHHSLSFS

By Ki is commonly meant the equilibrium dissociation constant of an inhibitor or competing ligand from its target. For `NCC(F)(F)c1nc2cnc3[nH]ccc3c2n1C1CCN(Cc2cccnc2)CC1` [Example 588, 2,2-Difluoro-2-[1-(1-pyridin-3-ylmethyl-piperidin-4-yl)-1,6-dihydro-1,2,3,5,6-tetraaza-as-indacen-2-yl]-ethylamine], the Ki came out at 0.0133 µM at JAK2, 0.00573 µM on JAK3, 0.00581 µM on JAK1 and 0.584 µM on TYK2.

In the case of `Cc1nc2cnc3[nH]ccc3c2n1[C@H]1CC[C@H](NC(C)CC#N)CC1` (stereo partly drawn) [Example 590, Trans 3-[4-(2-methyl-6H-1,2,3,5,6-tetraaza-as-indacen-1-yl)-cyclohexylamino]-butyronitrile], the Ki at JAK2 turned out to be 0.0135 µM; at JAK3 it was 0.0171 µM; on JAK1, 0.00274 µM; on TYK2, 0.0431 µM.

Turning to `Cc1nc2cnc3[nH]ccc3c2n1[C@H]1CC[C@H](NCC(F)(F)F)CC1` [Example 591, Trans[4-(2-methyl-6H-1,2,3,5,6-tetraaza-as-indacen-1-yl)-cyclohexyl]-(2,2,2-trifluoro-ethyl)-amine], the Ki at JAK2 was determined as 0.00187 µM; on JAK3, 0.013 µM; on JAK1 it was 0.00064 µM; on TYK2, 0.00251 µM.

For `COCCNC(=O)N(C)[C@H]1CC[C@H](n2cnc3cnc4[nH]ccc4c32)CC1` [Example 592, Trans 3-(2-Methoxy-ethyl)-1-methyl-1-[4-(6H-1,2,3,5,6-tetraaza-as-indacen-1-yl)-cyclohexyl]-urea], the Ki at JAK2 was determined as 0.0155 µM; on JAK3, 0.344 µM; at JAK1 it was 0.012 µM; on TYK2, 0.215 µM.

For `O=C(N[C@H]1CC[C@H](n2cnc3cnc4[nH]ccc4c32)CC1)N1CCOCC1` [Example 593, Trans Morpholine-4-carboxylic acid [4-(6H-1,2,3,5,6-tetraaza-as-indacen-1-yl)-cyclohexyl]-amide], the Ki at JAK2 was found to be 0.0365 µM; at JAK3 it was 0.316 µM; on JAK1, 0.0271 µM; on TYK2, 0.398 µM.

Take `COCCNC(=O)O[C@H]1CC[C@H](n2cnc3cnc4[nH]ccc4c32)CC1` [Example 595, Trans (2-methoxy-ethyl)-carbamic acid 4-(6H-1,2,3,5,6-tetraaza-as-indacen-1-yl)-cyclohexyl ester]: the Ki was 0.0289 µM on JAK2, 0.0968 µM at JAK3, 0.0104 µM on JAK1 and 0.185 µM at TYK2.

With `Cc1nc2cnc3[nH]ccc3c2n1[C@H]1CC[C@H](N2CCNC2=O)CC1` [Example 598, Trans 1-[4-(2-methyl-6H-1,2,3,5,6-tetraaza-as-indacen-1-yl)-cyclohexyl]-imidazolidin-2-one formic acid salt], the Ki is 0.00834 µM on JAK2, 0.0121 µM on JAK3, 0.00731 µM on JAK1 and 0.0455 µM on TYK2.

Turning to `CC(=O)NCCOC(=O)N[C@H]1CC[C@H](n2cnc3cnc4[nH]ccc4c32)CC1` [Example 599, Trans[4-(6H-1,2,3,5,6-tetraaza-as-indacen-1-yl)-cyclohexyl]-carbamic acid 2-acetylamino-ethyl ester], the Ki on JAK2 was 0.0264 µM; at JAK3 it was 0.186 µM; on JAK1 it was 0.00768 µM; on TYK2, 0.12 µM.

On to `COC(=O)N[C@H]1CC[C@H](n2c(CO)nc3cnc4[nH]ccc4c32)CC1` [Example 600, Trans[4-(2-hydroxymethyl-6H-1,2,3,5,6-tetraaza-as-indacen-1-yl)-cyclohexyl]-carbamic acid methyl ester], for which the Ki on JAK2 worked out at 0.0232 µM; on JAK3, 0.172 µM; at JAK1, 0.00273 µM; at TYK2 it was 0.0208 µM.

For `O=C(N[C@H]1CC[C@H](n2c(CO)nc3cnc4[nH]ccc4c32)CC1)OCC1CC1` [Example 601, Trans[4-(2-hydroxymethyl-6H-1,2,3,5,6-tetraaza-as-indacen-1-yl)-cyclohexyl]-carbamic acid cyclopropylmethyl ester], the Ki came to 0.0571 µM on JAK2, 0.111 µM on JAK3, 0.00389 µM at JAK1 and 0.149 µM on TYK2.

Consider `O=C1OC(CO)CN1[C@H]1CC[C@H](n2cnc3cnc4[nH]ccc4c32)CC1` (stereo partly drawn) [Example 602, Trans 5-hydroxymethyl-3-[4-(6H-1,2,3,5,6-tetraaza-as-indacen-1-yl)-cyclohexyl]-oxazolidin-2-one], for which the Ki on JAK2 came out at 0.00241 µM; at JAK3, 0.0567 µM; on JAK1, 0.00167 µM; on TYK2 it was 0.0127 µM.

For the molecule `CN(C)C(=O)N[C@H]1CC[C@H](n2cnc3cnc4[nH]ccc4c32)CC1` [Example 603, Trans 1,1-dimethyl-3-[4-(6H-1,2,3,5,6-tetraaza-as-indacen-1-yl)-cyclohexyl]-urea], the Ki on JAK2 is 0.0208 µM; at JAK3, 0.237 µM; at JAK1, 0.00976 µM; on TYK2, 0.087 µM.

Consider `Cc1nc2cnc3[nH]ccc3c2n1[C@H]1CC[C@H](NC(=O)N(C)C)CC1` [Example 604, Trans 1,1-dimethyl-3-[4-(2-methyl-6H-1,2,3,5,6-tetraaza-as-indacen-1-yl)-cyclohexyl]-urea], for which the Ki stood at 0.046 µM at JAK2, 0.249 µM at JAK3, 0.0164 µM on JAK1 and 0.244 µM on TYK2.

On to `Cc1nc2cnc3[nH]ccc3c2n1[C@H]1CC[C@H](OC(=O)N(C)C)CC1` [Example 605, Trans dimethyl-carbamic acid 4-(2-methyl-6H-1,2,3,5,6-tetraaza-as-indacen-1-yl)-cyclohexyl ester], for which the Ki on JAK2 came out at 0.0431 µM; at JAK3, 0.152 µM; on JAK1, 0.0152 µM; on TYK2, 0.129 µM.

In the case of `COC(=O)N(C)[C@H]1CC[C@H](n2c(CO)nc3cnc4[nH]ccc4c32)CC1` [Example 606, Trans[4-(2-hydroxymethyl-6H-1,2,3,5,6-tetraaza-as-indacen-1-yl)-cyclohexyl]-methyl-carbamic acid methyl ester], the Ki on JAK2 is 0.0652 µM; at JAK3, 0.455 µM; at JAK1, 0.0288 µM; on TYK2 it was 0.112 µM.

In the case of `Cc1nc2cnc3[nH]ccc3c2n1[C@H]1CC[C@H](NC(=O)OCC(F)F)CC1` [Example 607, Trans[4-(2-methyl-6H-1,2,3,5,6-tetraaza-as-indacen-1-yl)-cyclohexyl]-carbamic acid 2,2-difluoro-ethyl ester], the Ki on JAK2 was 0.00446 µM; on JAK3 it was 0.0112 µM; at JAK1 it was 0.0006 µM; on TYK2, 0.0231 µM.

Consider `CNC(=O)N(C)[C@H]1CC[C@H](n2c(C)nc3cnc4[nH]ccc4c32)CC1` [Example 608, Trans 1,3-dimethyl-1-[4-(2-methyl-6H-1,2,3,5,6-tetraaza-as-indacen-1-yl)-cyclohexyl]-urea], for which the Ki turned out to be 0.0124 µM on JAK2, 0.158 µM at JAK3, 0.0178 µM at JAK1 and 0.182 µM on TYK2.

Turning to `C[C@@H](O)c1nc2cnc3[nH]ccc3c2n1[C@H]1CC[C@H](OC(=O)N(C)C)CC1` [Example 609, Trans dimethyl-carbamic acid 4-[2-((R)-1-hydroxy-ethyl)-6H-1,2,3,5,6-tetraaza-as-indacen-1-yl]-cyclohexyl ester], the Ki on JAK2 came out at 0.641 µM; on JAK3 it was 0.701 µM; at JAK1, 0.0967 µM; at TYK2, 0.91 µM.

For `C[C@@H](O)c1nc2cnc3[nH]ccc3c2n1[C@H]1CC[C@H](N2CC[C@@H](C#N)C2)CC1` [Example 610, Trans (R)-1-{4-[2-((R)-1-hydroxy-ethyl)-6H-1,2,3,5,6-tetraaza-as-indacen-1-yl]-cyclohexyl}-pyrrolidine-3-carbonitrile], the Ki turned out to be 0.0355 µM at JAK2, 0.139 µM on JAK3, 0.00725 µM at JAK1 and 0.0177 µM at TYK2.

Regarding `C[C@@H](O)c1nc2cnc3[nH]ccc3c2n1[C@H]1CC[C@@H](N2CCC(F)(F)CC2)CC1` [Example 612, Cis (R)-1-{1-[4-(4,4-difluoro-piperidin-1-yl)-cyclohexyl]-1,6-dihydro-1,2,3,5,6-tetraaza-as-indacen-2-yl}-ethanol], the Ki on JAK2 was determined as 0.455 µM; at JAK3, 0.509 µM; at JAK1, 0.0529 µM; at TYK2 it was 0.224 µM.

In the case of `N#CC1CCN([C@H]2CC[C@H](n3c(CO)nc4cnc5[nH]ccc5c43)CC2)CC1` [Example 613, Trans 1-[4-(2-hydroxymethyl-6H-1,2,3,5,6-tetraaza-as-indacen-1-yl)-cyclohexyl]-piperidine-4-carbonitrile], the Ki at JAK2 was determined as 0.0151 µM; on JAK3, 0.318 µM; at JAK1, 0.00258 µM; on TYK2, 0.0145 µM.

On to `C[C@@H](O)c1nc2cnc3[nH]ccc3c2n1[C@H]1CC[C@H](NCC(F)(F)F)CC1` [Example 614, Trans (R)-1-{1-[4-(2,2,2-trifluoro-ethylamino)-cyclohexyl]-1,6-dihydro-1,2,3,5,6-tetraaza-as-indacen-2-yl}-ethanol], for which the Ki at JAK2 stood at 0.0132 µM; on JAK3, 0.0633 µM; on JAK1 it was 0.00076 µM; at TYK2, 0.00301 µM.

For the molecule `C[C@@H](O)c1nc2cnc3[nH]ccc3c2n1[C@H]1CC[C@H](NCCC#N)CC1` [Example 615, Trans 3-{4-[2-((R)-1-hydroxy-ethyl)-6H-1,2,3,5,6-tetraaza-as-indacen-1-yl]-cyclohexylamino}-propionitrile], the Ki at JAK2 was 0.0575 µM; at JAK3, 0.137 µM; on JAK1 it was 0.00196 µM; on TYK2, 0.0215 µM.

The record behind these values is patent US8461328B2, “Tricyclic heterocyclic compounds, compositions and methods of use thereof” (Genentech, Inc., priority 2010, dated 2013).
